In the supplement of paper PMC10627819:

Key:
Assay in all cases: Bliss interaction score (quartile over a dose matrix) (fitness difference); higher = more antagonism (negative = synergy)
[1] = system: S. pneumoniae D39V
How it was run: (§1)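 Quartiles summarise the Bliss score over technical, biological and donor/recipient replicates, where the score is observed minus expected fitness under a product model. Expected fitness uses single-drug values inferred from combination data. Fitness is OD595 at entry into stationary phase over the plate's robust no-drug mean, capped at 1.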

[2] = system: S. aureus DSM 20231
How it was run: as §1

[3] = system: S. aureus Newman
How it was run: as §1

[4] = system: B. subtilis 168
How it was run: as §1
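Further: first quartile when negative (synergy) and third quartile when positive (antagonism).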

`CO/N=C(\C(=O)N[C@@H]1C(=O)N2C(C(=O)O)=C(COC(C)=O)CS[C@H]12)c1csc(N)n1` [Cefotaxime] + O=C(O)[C@H]1/C(=C/CO)O[C@@H]2CC(=O)N21 [Clavulanic] showed a Bliss interaction score [1] of -0.0534, a Bliss interaction score [2] of 0.176 and a Bliss interaction score [3] of 0.279. For the same compound, the Bliss interaction score [4] was -0.0436.

`N#CC(C#N)=NNc1cccc(Cl)c1` [CCCP] + O=C(O)c1cn(C2CC2)c2cc(N3CCNCC3)c(F)cc2c1=O [Ciprofloxacin] gave a Bliss interaction score [1] of 0.0549, a Bliss interaction score [2] of -0.0358 and a Bliss interaction score [3] of -0.0497. For the same compound, the Bliss interaction score [4] was -0.0456.

In the case of `N#CC(C#N)=NNc1cccc(Cl)c1` [CCCP] + O=C(O[C@@H]1Cc2c(O)cc(O)cc2O[C@@H]1c1cc(O)c(O)c(O)c1)c1cc(O)c(O)c(O)c1 [EGCG], the Bliss interaction score [1] is reported as 0.105, the Bliss interaction score [2] is reported as -0.0526 and the Bliss interaction score [3] is reported as -0.0367. It also gave a Bliss interaction score [4] of -0.0905.

Compound `CO/N=C(\C(=O)N[C@@H]1C(=O)N2C(C(=O)O)=C(COC(N)=O)CS[C@H]12)c1ccco1` [Cefuroxime] + CC[C@H]1OC(=O)[C@H](C)C(=O)[C@H](C)[C@@H](O[C@@H]2O[C@H](C)C[C@H](N(C)C)[C@H]2O)[C@](C)(OC)C[C@@H](C)C(=O)[C@H](C)[C@H]2N(CCCCn3cnc(-c4cccnc4)c3)C(=O)O[C@]12C [Telithromycin] has a Bliss interaction score [1] of 0.0493, a Bliss interaction score [2] of -0.0813 and a Bliss interaction score [3] of 0.272. The Bliss interaction score [4] was 0.0752.

In the case of `CN(C)[C@@H]1C(O)=C(C(N)=O)C(=O)[C@@]2(O)C(O)=C3C(=O)c4c(O)ccc(Cl)c4[C@@](C)(O)[C@H]3C[C@@H]12` [Clortetracycline] + CCC(C)C1C(=O)NC(=C)C(=O)NC(C(=O)NC(CSCC(C(=O)N1)NC(=O)/C(=C/C)/NC(=O)C(C(C)CC)N)C(=O)NC2C(SCC(NC(=O)CNC(=O)C3CCCN3C2=O)C(=O)NC(CCCCN)C(=O)NC4C(SCC(NC(=O)CNC(=O)C(NC(=O)C(NC(=O)C(NC(=O)CNC4=O)C)CC(C)C)CCSC)C(=O)NC(CC(=O)N)C(=O)NC(CCSC)C(=O)NC(CCCCN)C(=O)NC5C(SCC6C(=O)NC(C(=O)NC(CSC(C(C(=O)N6)NC(=O)C(NC5=O)C)C)C(=O)NC(CO)C(=O)NC(C(C)CC)C(=O)NC(CC7=CN=CN7)C(=O)NC(C(C)C)C(=O)NC(=C)C(=O)NC(CCCCN)C(=O)O)CC8=CN=CN8)C)C)C)CC(C)C [Nisin], the Bliss interaction score ([1]; main component drawn) is reported as -0.122, the Bliss interaction score ([2]; main component drawn) is reported as 0.0616 and the Bliss interaction score ([3]; main component drawn) is reported as 0.0486. The Bliss interaction score ([4]; main component drawn) was 0.0718.

With `N#CC(C#N)=NNc1cccc(Cl)c1` [CCCP] + CO/N=C(\C(=O)N[C@@H]1C(=O)N2C(C(=O)O)=C(COC(N)=O)CS[C@H]12)c1ccco1 [Cefuroxime] the Bliss interaction score [1] was 0.0309, the Bliss interaction score [2] was -0.256 and the Bliss interaction score [3] was -0.112. The Bliss interaction score [4] was 0.0873.

Compound `N#CC(C#N)=NNc1cccc(Cl)c1` [CCCP] + CCC[C@@H]1C[C@@H](C(=O)N[C@@H]([C@H]2O[C@H](SC)[C@H](O)[C@@H](O)[C@H]2O)[C@H](C)Cl)N(C)C1 [Clindamycin] has a Bliss interaction score [1] of -0.138, a Bliss interaction score [2] of 0.0216 and a Bliss interaction score [3] of 0.0938. The Bliss interaction score [4] was -0.0426.

Work on `CC(=O)Oc1ccccc1C(=O)O` [Acetylsalicylicacid] + CC[C@H](C)[C@H](N)C1=N[C@H](C(=O)N[C@@H](CC(C)C)C(=O)N[C@H](CCC(=O)O)C(=O)N[C@H](C(=O)N[C@H]2CCCCNC(=O)[C@H](CC(N)=O)NC(=O)[C@@H](CC(=O)O)NC(=O)[C@H](Cc3cnc[nH]3)NC(=O)[C@@H](Cc3ccccc3)NC(=O)[C@H]([C@@H](C)CC)NC(=O)[C@@H](CCCN)NC2=O)[C@@H](C)CC)CS1 [Bacitracin] yielded a Bliss interaction score ([1]; main component drawn) of 0.165, a Bliss interaction score ([2]; main component drawn) of 0.0276 and a Bliss interaction score ([3]; main component drawn) of -0.0752. It also gave a Bliss interaction score ([4]; main component drawn) of 0.123.

`CN(C)[C@@H]1C(O)=C(C(N)=O)C(=O)[C@@]2(O)C(O)=C3C(=O)c4c(O)ccc(Cl)c4[C@@](C)(O)[C@H]3C[C@@H]12` [Clortetracycline] + CN[C@@H]1[C@H](O[C@H]2[C@H](O[C@H]3[C@H](O)[C@@H](O)[C@H](N=C(N)N)[C@@H](O)[C@@H]3N=C(N)N)O[C@@H](C)[C@]2(O)C=O)O[C@@H](CO)[C@H](O)[C@H]1O [Streptomycin] was tested, and the Bliss interaction score [1] was -0.0408, the Bliss interaction score [2] was -0.0487 and the Bliss interaction score [3] was -0.0515. The Bliss interaction score [4] was 0.156.

In the case of `CN(C)[C@@H]1C(O)=C(C(N)=O)C(=O)[C@@]2(O)C(O)=C3C(=O)c4c(O)ccc(Cl)c4[C@@](C)(O)[C@H]3C[C@@H]12` [Clortetracycline] + COc1ccc(C[C@H](N)C(=O)N[C@H]2[C@@H](O)[C@H](n3cnc4c(N(C)C)ncnc43)O[C@@H]2CO)cc1 [Puromycin], the Bliss interaction score [1] is reported as -0.0852, the Bliss interaction score [2] is reported as -0.0681 and the Bliss interaction score [3] is reported as -0.0798. The Bliss interaction score [4] was -0.0605.

Work on `O=C(O)c1cn(C2CC2)c2cc(N3CCNCC3)c(F)cc2c1=O` [Ciprofloxacin] + CO[C@@]12[C@H](COC(N)=O)C3=C(C(=O)C(C)=C(N)C3=O)N1C[C@@H]1N[C@@H]12 [MitomycinC] yielded a Bliss interaction score [1] of -0.111, a Bliss interaction score [2] of -0.057 and a Bliss interaction score [3] of 0.0577. It also gave a Bliss interaction score [4] of -0.108.

Compound `N#CC(C#N)=NNc1cccc(Cl)c1` [CCCP] + N[C@@H]1CONC1=O [CycloserineD] has a Bliss interaction score [1] of 0.102, a Bliss interaction score [2] of -0.0883 and a Bliss interaction score [3] of -0.0487. It also gave a Bliss interaction score [4] of 0.0617.

For `CC(=O)Oc1ccccc1C(=O)O` [Acetylsalicylicacid] + CCC[C@@H]1C[C@@H](C(=O)N[C@@H]([C@H]2O[C@H](SC)[C@H](O)[C@@H](O)[C@H]2O)[C@@H](C)O)N(C)C1 [Lincomycin], the Bliss interaction score [1] was 0.0801, the Bliss interaction score [2] was 0.199 and the Bliss interaction score [3] was 0.0556. It also gave a Bliss interaction score [4] of -0.0832.

In the case of `Cc1ncc([N+](=O)[O-])n1CCO` [Metronidazole] + Oc1cc(Cl)ccc1Oc1ccc(Cl)cc1Cl [Triclosan], the Bliss interaction score [1] is reported as 0.0696, the Bliss interaction score [2] is reported as 0.0778 and the Bliss interaction score [3] is reported as 0.0457. It also gave a Bliss interaction score [4] of 0.0396.

`N#CC(C#N)=NNc1cccc(Cl)c1` [CCCP] + C/C(=C\C(=O)OCCCCCCCCC(=O)O)C[C@@H]1OC[C@H](C[C@@H]2O[C@H]2[C@@H](C)[C@H](C)O)[C@@H](O)[C@H]1O [Pseudomonic acid] gave a Bliss interaction score [1] of 0.0939, a Bliss interaction score [2] of 0.0141 and a Bliss interaction score [3] of -0.0111. It also gave a Bliss interaction score [4] of -0.137.

Compound `CC1(C)S[C@@H]2[C@H](NC(=O)Cc3ccccc3)C(=O)N2[C@H]1C(=O)O` [PenicillinG] + Cc1cc(NS(=O)(=O)c2ccc(N)cc2)no1 [Sulfamethoxazol] has a Bliss interaction score [1] of -0.0954, a Bliss interaction score [2] of -0.0626 and a Bliss interaction score [3] of 0.0475. The Bliss interaction score [4] was 0.0445.
